Key:
calcineurin (CN) = system: T1, calcineurin (CN); assay: calcineurin activity kit (RII phosphopeptide, malachite green) in rat VSMCs after 24-h pretreatment; type: cell-based
T1 construct: gene Ppp3ca; with calcineurin B (CnB, regulatory subunit)

[1] = target: angiotensin-converting enzyme (ACE) (Homo sapiens, UniProt P12821); assay: ACE activity of HUVECs (hippuric acid release from HHL) after 20-min incubation with AGS-IV; type: cell-based
Chain of angiotensin-converting enzyme (ACE) (P12821 30-1306): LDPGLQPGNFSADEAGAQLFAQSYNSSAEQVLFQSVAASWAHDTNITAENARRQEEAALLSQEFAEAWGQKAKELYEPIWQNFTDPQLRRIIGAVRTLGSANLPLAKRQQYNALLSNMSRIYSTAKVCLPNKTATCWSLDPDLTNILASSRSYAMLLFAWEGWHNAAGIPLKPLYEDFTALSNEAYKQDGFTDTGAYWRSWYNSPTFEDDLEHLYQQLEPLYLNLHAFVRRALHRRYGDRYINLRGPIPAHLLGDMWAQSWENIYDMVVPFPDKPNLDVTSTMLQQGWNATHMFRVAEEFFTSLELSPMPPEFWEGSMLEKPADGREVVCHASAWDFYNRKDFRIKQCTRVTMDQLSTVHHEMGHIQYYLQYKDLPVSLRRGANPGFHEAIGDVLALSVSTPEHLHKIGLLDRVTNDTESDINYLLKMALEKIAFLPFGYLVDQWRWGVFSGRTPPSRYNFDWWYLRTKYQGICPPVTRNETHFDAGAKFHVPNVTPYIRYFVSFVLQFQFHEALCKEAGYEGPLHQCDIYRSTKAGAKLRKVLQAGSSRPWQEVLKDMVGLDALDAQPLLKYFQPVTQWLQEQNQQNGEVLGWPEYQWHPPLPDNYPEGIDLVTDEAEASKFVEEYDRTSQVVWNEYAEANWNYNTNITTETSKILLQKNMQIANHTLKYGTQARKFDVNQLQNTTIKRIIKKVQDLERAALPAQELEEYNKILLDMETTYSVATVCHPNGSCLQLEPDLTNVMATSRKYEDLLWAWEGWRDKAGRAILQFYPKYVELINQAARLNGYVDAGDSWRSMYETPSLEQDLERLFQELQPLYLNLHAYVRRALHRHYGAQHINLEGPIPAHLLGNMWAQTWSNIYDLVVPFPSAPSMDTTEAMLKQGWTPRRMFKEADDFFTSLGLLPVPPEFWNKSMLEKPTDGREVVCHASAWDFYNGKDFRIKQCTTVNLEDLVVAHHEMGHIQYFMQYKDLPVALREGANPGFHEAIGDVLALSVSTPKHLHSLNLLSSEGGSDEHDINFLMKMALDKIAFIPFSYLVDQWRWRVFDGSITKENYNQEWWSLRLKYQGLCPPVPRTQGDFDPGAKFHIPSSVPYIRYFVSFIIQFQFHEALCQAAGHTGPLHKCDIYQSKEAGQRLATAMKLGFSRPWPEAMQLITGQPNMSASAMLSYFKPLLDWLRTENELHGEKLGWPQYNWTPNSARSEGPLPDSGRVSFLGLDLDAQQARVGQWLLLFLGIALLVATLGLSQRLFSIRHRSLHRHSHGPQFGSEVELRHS

Work on `CC(C)(O)[C@@H]1CC[C@](C)([C@H]2[C@@H](O)C[C@@]3(C)[C@@H]4C[C@H](O[C@@H]5O[C@H](CO)[C@@H](O)[C@H](O)[C@H]5O)[C@H]5C(C)(C)[C@@H](O[C@@H]6OC[C@@H](O)[C@H](O)[C@H]6O)CC[C@@]56C[C@@]46CC[C@]23C)O1` [AGS-IV, Astragaloside IV] yielded an IC50 (calcineurin (CN)) of 403 nM and an IC50 [1] of 268 nM.

From paper PMC3444501, “Therapeutic Effects of Astragaloside IV on Myocardial Injuries: Multi-Target Identification and Network Analysis” (PLoS ONE, 2012)
